Where a name gives a salt, the structure may show the parent alone.

The residual activity is the signal under treatment as a percentage of the control signal.

The target in data set [1] is T1, Solute carrier organic anion transporter family member 1B1 (Homo sapiens, UniProt Q9Y6L6).
T1 sequence (Q9Y6L6 whole entry): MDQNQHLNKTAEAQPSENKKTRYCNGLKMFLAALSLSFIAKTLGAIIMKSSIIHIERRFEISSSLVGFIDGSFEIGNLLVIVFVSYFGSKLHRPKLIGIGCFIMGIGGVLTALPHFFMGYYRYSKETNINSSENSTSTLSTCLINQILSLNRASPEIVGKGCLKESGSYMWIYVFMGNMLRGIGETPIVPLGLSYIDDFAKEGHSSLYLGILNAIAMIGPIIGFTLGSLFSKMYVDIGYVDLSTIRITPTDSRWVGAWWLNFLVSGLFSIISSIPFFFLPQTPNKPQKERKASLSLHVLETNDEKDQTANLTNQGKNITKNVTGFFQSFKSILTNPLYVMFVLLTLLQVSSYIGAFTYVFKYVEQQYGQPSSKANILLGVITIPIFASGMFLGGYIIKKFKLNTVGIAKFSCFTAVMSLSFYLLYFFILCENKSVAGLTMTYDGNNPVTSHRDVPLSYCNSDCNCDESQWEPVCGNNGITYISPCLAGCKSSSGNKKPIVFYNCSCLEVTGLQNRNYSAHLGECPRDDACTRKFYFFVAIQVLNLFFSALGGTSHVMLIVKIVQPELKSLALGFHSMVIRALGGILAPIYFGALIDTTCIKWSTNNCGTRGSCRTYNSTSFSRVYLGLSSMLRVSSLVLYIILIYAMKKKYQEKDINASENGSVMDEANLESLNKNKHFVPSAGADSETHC
Conditions: chinese hamster, cho, 10 µM.

Data set [2] addresses T2, Solute carrier organic anion transporter family member 1B3 (Homo sapiens, UniProt Q9NPD5).
T2 sequence (Q9NPD5 whole entry): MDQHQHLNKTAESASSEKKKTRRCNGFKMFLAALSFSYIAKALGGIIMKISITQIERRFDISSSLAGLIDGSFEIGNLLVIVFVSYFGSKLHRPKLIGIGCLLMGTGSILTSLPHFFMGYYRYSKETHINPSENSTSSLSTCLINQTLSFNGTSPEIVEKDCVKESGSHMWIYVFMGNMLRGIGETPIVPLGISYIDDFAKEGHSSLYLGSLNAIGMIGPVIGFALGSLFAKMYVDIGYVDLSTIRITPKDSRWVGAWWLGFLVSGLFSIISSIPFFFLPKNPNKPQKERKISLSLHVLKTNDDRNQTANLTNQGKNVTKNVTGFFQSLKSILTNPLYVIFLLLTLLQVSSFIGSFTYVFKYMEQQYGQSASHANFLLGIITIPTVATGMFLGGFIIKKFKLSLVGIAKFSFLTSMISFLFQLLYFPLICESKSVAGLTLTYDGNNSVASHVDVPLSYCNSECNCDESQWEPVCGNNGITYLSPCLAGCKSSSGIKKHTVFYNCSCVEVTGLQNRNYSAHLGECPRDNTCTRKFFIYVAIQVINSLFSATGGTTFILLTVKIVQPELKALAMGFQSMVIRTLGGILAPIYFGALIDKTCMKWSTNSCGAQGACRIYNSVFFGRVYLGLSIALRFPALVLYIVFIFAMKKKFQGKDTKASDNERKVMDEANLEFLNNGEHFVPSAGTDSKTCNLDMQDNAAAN
Conditions: chinese hamster, cho, 10 µM.

On to `CCOC(=O)c1c(C)cc(OC)cc1O` [ETHYL EVERNINATE], for which the residual activity in data set [1] is recorded as 111.1%; in data set [2] it was 102.6%.
The corresponding values for `O=C(O[C@@H]1Cc2c(O)cc(O)cc2O[C@@H]1c1cc(O)c(O)c(O)c1-c1c([C@H]2Oc3cc(O)cc(O)c3C[C@H]2OC(=O)c2cc(O)c(O)c(O)c2)cc(O)c(O)c1O)c1cc(O)c(O)c(O)c1` [THEASINENSIN A] are 61.1% and 94.99%.
`COc1ccc2oc(-c3ccccc3)c(OC)c(=O)c2c1` [3,6-DIMETHOXYFLAVONE]: the residual activity in data set [1] was found to be 99.01%; in data set [2], 76.93%.
The corresponding values for `CN1C[C@H](C(=O)N[C@]2(C)O[C@@]3(O)[C@@H]4CCCN4C(=O)[C@H](Cc4ccccc4)N3C2=O)C[C@@H]2c3cccc4[nH]cc(c34)C[C@H]21.CS(=O)(=O)O` [DIHYDROERGOTAMINE MESYLATE] are 27.06% and 10.07%.
The corresponding values for `CC1=C(/C=C/C(C)=C/C=C/C(C)=C/C=C/C=C(C)/C=C/C=C(C)/C=C/C(=O)[C@]2(C)C[C@@H](O)CC2(C)C)C(C)(C)C[C@H](O)C1` [CAPSANTHIN] are 79.45% and 102.1%.
For `Cl.N[C@@H]1C[C@H]1c1ccccc1` [TRANYLCYPROMINE HYDROCHLORIDE], the residual activity worked out at 80.64% in data set [1] and 89.57% in data set [2].
Turning to `COC(=O)C[C@H]1C(C)(C)[C@@H](OC(C)=O)[C@@H]2CC3C4CC(=O)O[C@@H](c5ccoc5)[C@]4(C)CCC3[C@@]1(C)C2=O` (stereo partly drawn) [DIHYDROFISSINOLIDE], the residual activity in data set [1] was 71.88%; in data set [2], 77.17%.
As for `NC(=O)c1cccc(N)c1` [3-AMINOBENZAMIDE], the residual activity in data set [1] amounted to 106.1%; in data set [2], 110.7%.
Turning to `COc1cc2c(cc1OC)-c1cc3ccc(OC)c(OC)c3c[n+]1CC2.[Cl-]` [PALMATINE CHLORIDE], the residual activity came out at 110.1% in data set [1] and 97.62% in data set [2].
The corresponding values for `CC(=O)c1ccc(O)c(CC=C(C)C)c1` [3-PRENYL-4-HYDROXYACETOPHENONE] are 93.69% and 99.32%.
As for `CC(=O)OC1CCC23CC1(C)CCC2C(C)(C)CC3OC(C)=O` (stereo not drawn) [CLOVANEDIOL DIACETATE], the values for the residual activity in data set [1] and in data set [2] were 109.5% and 85.3%, respectively.
On the same counts, the results for `CCC1(C2=NCCN2)Cc2ccccc2O1.Cl` (stereo not drawn) [EFAROXAN HYDROCHLORIDE] are 80.2% and 83.03%.
`C[C@@H]1CC[C@]2(NC1)O[C@H]1C[C@H]3[C@@H]4CC=C5C[C@@H](O)CC[C@]5(C)[C@H]4CC[C@]3(C)[C@H]1[C@@H]2C` [SOLASODINE]: the figures for the residual activity in data set [1] and in data set [2] were 91.83% and 113.6%, respectively.
On the same counts, the results for `N[C@@H](C(=O)N[C@@H]1C(=O)N2C(C(=O)O)=C(Cl)CS[C@H]12)c1ccccc1` [CEFACLOR ANHYDROUS] are 84.74% and 114.4%.
On to `NC(=O)c1ncn([C@@H]2O[C@H](CO)[C@@H](O)[C@H]2O)n1` [RIBAVIRIN], for which the residual activity in data set [1] came to 112.3%; in data set [2] it was 87.39%.
On the same counts, the results for `Nc1ccc(S(=O)(=O)NC(=O)c2ccccc2)cc1` [SULFABENZAMIDE] are 84.77% and 94.35%.
Regarding `O=C(Cc1ccccc1)NO` [PHENYLACETOHYDROXAMIC ACID], the residual activity turned out to be 58.46% in data set [1] and 75.25% in data set [2].
Turning to `CCCn1cnc2c1c(=O)n(CCCCC(C)=O)c(=O)n2C` [PROPENTOFYLLINE], the residual activity came to 126.3% in data set [1] and 110.4% in data set [2].
The corresponding values for `C=C1CCC2C(CC2(C)C)C(=O)CCC1O` (stereo not drawn) [ISOKOBUSONE] are 93.72% and 82.48%.
On the same counts, the results for `CCCC(C)C1(CC)C(=O)NC(=O)NC1=O` (stereo not drawn) [PENTOBARBITAL] are 94.35% and 94.07%.
`Cc1cc(NC(=O)C2=C(O)c3ccccc3S(=O)(=O)N2C)no1` [ISOXICAM]: the residual activity in data set [1] was 111.2%; in data set [2] it was 86.6%.
On the same counts, the results for `O=C(/C=C/C(=O)Oc1ccccc1C(=O)O)Oc1ccccc1C(=O)O` [BISSALICYL FUMARATE] are 104.8% and 99.92%.
`CCCCCC(=O)O[C@]1(C(C)=O)CC[C@H]2[C@@H]3CCC4=CC(=O)CC[C@]4(C)[C@H]3CC[C@@]21C` [HYDROXYPROGESTERONE CAPROATE]: the residual activity in data set [1] amounted to 40.59%; in data set [2], 55.76%.
The corresponding values for `COc1ccc2c(c1)[nH]c1c(C)nccc12` [HARMINE] are 105.3% and 101.7%.
For `C=C1C[C@H]2O[C@]2(C)CC[C@@H]2[C@@H]1CC2(C)C`, the residual activity in data set [1] worked out at 54.1%; in data set [2], 80.12%.
The corresponding values for `Nc1nc(N)c2nc(-c3ccccc3)c(N)nc2n1` are 78.63% and 69.61%.
For the molecule `ClC1=C(Cl)C2(Cl)C3C4CC(C5OC45)C3C1(Cl)C2(Cl)Cl` (stereo not drawn) [ENDRIN], the residual activity in data set [1] was found to be 107.3%; in data set [2] it was 121%.
For the molecule `COC(=O)C[C@H]1C(C)(C)[C@@H](OC(C)=O)[C@@H]2CC3=C4CC(=O)O[C@@H](c5ccoc5)[C@]4(C)CC[C@@H]3[C@@]1(C)C2=O` [FISSINOLIDE], the residual activity in data set [1] came out at 27.44%; in data set [2], 51.76%.
On the same counts, the results for `COc1cc2c3cc1Oc1cc(ccc1O)C[C@@H]1c4c(cc(OC)c(O)c4Oc4ccc(cc4)C[C@@H]3N(C)CC2)CC[N+]1(C)C.[Cl-]` are 99.28% and 110.3%.
The corresponding values for `CC(=O)[C@@]1(O)CC[C@H]2[C@@H]3C=C(Cl)C4=CC(=O)[C@@H]5C[C@@H]5[C@]4(C)[C@H]3CC[C@@]21C` [CYPROTERONE] are 30.6% and 112.2%.
The corresponding values for `CCc1ccc(CCOc2ccc(CC3SC(=O)NC3=O)cc2)nc1.Cl` (stereo not drawn) [PIOGLITAZONE HYDROCHLORIDE] are 122.7% and 88.74%.
On to `NC1(C(=O)O)CC1` [1-Aminocyclopropane carboxylic acid], for which the residual activity in data set [1] was found to be 125.9%; in data set [2], 99.32%.
The corresponding values for `Cc1c(NC(=O)c2cccnc2)c(=O)n(-c2ccccc2)n1C` [NIFENAZONE] are 96.39% and 120.6%.
The corresponding values for `CCC[C@@H]1C[C@@H](C(=O)N[C@@H]([C@H]2O[C@H](SC)[C@H](O)[C@@H](O)[C@H]2O)[C@H](C)Cl)N(C)C1.Cl` [CLINDAMYCIN HYDROCHLORIDE] are 69.97% and 115.2%.
Regarding `COC(=O)C[C@H]1C(C)(C)C(OC(C)=O)[C@]2(O)C=C3C4CC(=O)O[C@@H](c5ccoc5)[C@]4(C)CCC3[C@@]1(C)C2=O` (stereo partly drawn) [HUMILIN A], the residual activity in data set [1] amounted to 22.34%; in data set [2], 34.35%.
As to `CCN1CCCC1CNC(=O)c1cc(S(N)(=O)=O)ccc1OC` (stereo not drawn) [SULPIRIDE], the values for the residual activity in data set [1] and in data set [2] were 121.8% and 106.2%, respectively.
The corresponding values for `CCOC(=O)NNc1nncc2ccccc12.Cl` [TODRALAZINE HYDROCHLORIDE] are 100.5% and 106.5%.
The corresponding values for `CC[C@H](CC[C@@H](C)[C@H]1CC[C@H]2[C@@H]3CC=C4C[C@@H](OC(C)=O)CC[C@]4(C)[C@H]3CC[C@]12C)C(C)C` [SITOSTERYL ACETATE] are 97.72% and 83.78%.
For `CC(C)N1C(=O)c2ccccc2NS1(=O)=O` [BENTAZON], the residual activity in data set [1] turned out to be 109.9%; in data set [2] it was 96.3%.

Values taken from ChEMBL document CHEMBL3039007, “Structure-based identification of OATP1B1/3 inhibitors” (Mol Pharmacol, 2013).
